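Five compound concentrations were applied to cells in 96-well plates for 48 hours; endpoints were derived by simple linear interpolation of the resulting dose-response curve. TGI: total growth inhibition.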

Some test systems named below: SW-620 colon; MCF7 breast; MOLT-4 leukemia; SN12C renal; HCT-15 colon; SNB-75 CNS; SF-295 CNS; SK-MEL-28 melanoma; CCRF-CEM leukemia; UACC-257 melanoma; NCI-H23 lung; SR leukemia; PC-3 prostate; HOP-62 NSCLC; HS 578T breast; NCI-H226 lung; UO-31 renal; SK-MEL-2 melanoma.
Assay in all cases: NCI anticancer screen, dose series, 48 h

Consider `Nc1cc(Cl)cc2cc(Cl)cnc12`, for which the TGI with SW-620 colon, in the test on MCF7 breast, with MOLT-4 leukemia, with SN12C renal, in the test with HCT-15 colon and in the test on SNB-75 CNS was over 100 µM throughout. The TGI in the test with SF-295 CNS, in the test with SK-MEL-28 melanoma, in the test on CCRF-CEM leukemia, with UACC-257 melanoma, in the test with NCI-H23 lung and in the test on SR leukemia was over 100 µM throughout. Moreover, the TGI in the test on PC-3 prostate, with HOP-62 NSCLC, in the test with HS 578T breast, in the test with NCI-H226 lung and with UO-31 renal was over 100 µM throughout.

Regarding `O=c1[nH]c2cccc([N+](=O)[O-])c2c(=O)n1-c1ccc(Cl)cc1`, the TGI in the test on SW-620 colon turned out to be 27.1 µM; with MCF7 breast, 25.5 µM; in the test with MOLT-4 leukemia, 43.2 µM; in the test on SN12C renal it was 33.9 µM; with HCT-15 colon it was 30.2 µM; in the test on SF-295 CNS, 12.2 µM. For the same compound, the TGI is 26.8 µM in the test with SK-MEL-28 melanoma; 47.1 µM in the test on CCRF-CEM leukemia; 29.6 µM with UACC-257 melanoma; 42.1 µM in the test with NCI-H23 lung; 35.2 µM in the test on SR leukemia; 38.1 µM in the test on PC-3 prostate. The TGI with HOP-62 NSCLC came out at 61 µM; in the test on HS 578T breast, 42 µM; in the test with NCI-H226 lung, 30.1 µM; in the test on SK-MEL-2 melanoma it was 25.6 µM.

For the compound `Cc1ccc(S(=O)(=O)NC(=O)NCc2ccc(S(N)(=O)=O)cc2)cc1`, the TGI with SW-620 colon, with MCF7 breast, with MOLT-4 leukemia, in the test with HCT-15 colon, in the test on SNB-75 CNS and in the test on SF-295 CNS was over 100 µM throughout. Besides, the TGI with SK-MEL-28 melanoma, in the test with NCI-H23 lung, with SR leukemia, in the test on PC-3 prostate, in the test on HOP-62 NSCLC and in the test on HS 578T breast was over 100 µM each time. In addition, the TGI in the test with NCI-H226 lung, with SK-MEL-2 melanoma and with UO-31 renal was over 100 µM throughout.

For `CC1(C)C2CC(O)C1(C)CC2=O` (stereo unspecified), the TGI with SW-620 colon, in the test on MCF7 breast, with MOLT-4 leukemia, in the test with SN12C renal, with HCT-15 colon and in the test on SNB-75 CNS was over 100 µM each time. For the same compound, the TGI is over 100 µM in the test with SF-295 CNS; 14.8 µM in the test on SK-MEL-28 melanoma; over 100 µM in the test on CCRF-CEM leukemia; over 100 µM in the test on UACC-257 melanoma; over 100 µM in the test with NCI-H23 lung; over 100 µM in the test on SR leukemia. The TGI in the test with PC-3 prostate, in the test on HOP-62 NSCLC, with HS 578T breast, with NCI-H226 lung and in the test on UO-31 renal was over 100 µM each time.

`CCCCCCCC(CC(=O)NC(CO)C(=O)NC(CO)CC(C)C)OC(=O)CC(CCCCCCC)OC(=O)CC(CCCCCCC)OC1OC(C)C(O)C(OC2OC(C)C(O)C(OC(C)=O)C2O)C1O` (stereo unspecified): the TGI in the test with SW-620 colon came out at 28.8 µM; in the test with MCF7 breast, 24.7 µM; in the test on MOLT-4 leukemia, 16.8 µM; in the test on SN12C renal, 19.9 µM; with SNB-75 CNS, 19.1 µM; in the test with SF-295 CNS, 30.2 µM. The TGI with SK-MEL-28 melanoma amounted to 24.6 µM; in the test on CCRF-CEM leukemia, 21.4 µM; in the test on UACC-257 melanoma it was 18.5 µM; in the test on NCI-H23 lung, 27.9 µM; in the test with SR leukemia it was 13.2 µM; in the test with PC-3 prostate, 20.6 µM. Further, the TGI with HOP-62 NSCLC was found to be 24.8 µM; in the test with HS 578T breast, 20.3 µM; in the test on NCI-H226 lung it was 35.1 µM; with UO-31 renal it was 28.3 µM.

Take `COc1ccc(CNc2ccn(C3OC(CO)C(O)C3O)c(=O)n2)cc1` (stereo unspecified): the TGI in the test with SW-620 colon, in the test on MCF7 breast, in the test on MOLT-4 leukemia, in the test with SN12C renal, in the test with HCT-15 colon and with SF-295 CNS was over 100 µM in each case. Also, the TGI with SK-MEL-28 melanoma, in the test with CCRF-CEM leukemia, in the test on UACC-257 melanoma, with NCI-H23 lung, in the test with SR leukemia and in the test on PC-3 prostate was over 100 µM throughout. Besides, the TGI in the test with HOP-62 NSCLC, with HS 578T breast, in the test with NCI-H226 lung, in the test on SK-MEL-2 melanoma and in the test on UO-31 renal was over 100 µM each time.

On to `CC(C)(C)c1cc(S(=O)(=O)O)c2oc(-c3ccccc3)cc(=O)c2c1`, for which the TGI in the test on SW-620 colon, in the test on MCF7 breast, in the test with MOLT-4 leukemia, with SN12C renal, with HCT-15 colon and with SNB-75 CNS was over 100 µM each time. In addition, the TGI in the test with SF-295 CNS, in the test on SK-MEL-28 melanoma, with CCRF-CEM leukemia, in the test with UACC-257 melanoma, in the test with NCI-H23 lung and with SR leukemia was over 100 µM each time. In addition, the TGI in the test with PC-3 prostate, in the test on HOP-62 NSCLC, in the test on HS 578T breast, with NCI-H226 lung and with UO-31 renal was over 100 µM each time.

As to `CC(=O)O[C@H]1C(=O)[C@@]2(C)[C@H]([C@H](OC(=O)c3ccccc3)[C@]3(O)C[C@H](OC(=O)[C@H](O)[C@@H](NC(=O)c4ccc(N)cc4)c4ccccc4)C(C)=C1C3(C)C)[C@]1(OC(C)=O)CO[C@@H]1C[C@@H]2O`, the TGI with SW-620 colon was over 50 µM; in the test on MCF7 breast it was over 50 µM; in the test on MOLT-4 leukemia, over 29.5 µM; in the test on HCT-15 colon, over 50 µM; in the test with SNB-75 CNS, over 50 µM; in the test on SF-295 CNS, over 50 µM. For the same compound, the TGI was over 50 µM in the test with SK-MEL-28 melanoma; over 23.7 µM with CCRF-CEM leukemia; over 41.9 µM in the test with SR leukemia; over 50 µM in the test on PC-3 prostate; over 50 µM in the test on HOP-62 NSCLC; 0.0126 µM in the test on HS 578T breast. Further, the TGI in the test on NCI-H226 lung was 0.00862 µM; with UO-31 renal, over 50 µM.

Regarding `COC(=O)/C(C)=N/NC(=S)SC`, the TGI in the test with SW-620 colon, with MCF7 breast, with MOLT-4 leukemia, in the test with HCT-15 colon, with SF-295 CNS and in the test on SK-MEL-28 melanoma was over 100 µM each time. In addition, the TGI in the test with CCRF-CEM leukemia was 11 µM; in the test on UACC-257 melanoma, over 100 µM; with NCI-H23 lung, over 100 µM; in the test with SR leukemia, over 100 µM; in the test on PC-3 prostate, over 100 µM; with HOP-62 NSCLC, over 100 µM. For the same compound, the TGI in the test with HS 578T breast, in the test with NCI-H226 lung, with SK-MEL-2 melanoma and in the test on UO-31 renal was over 100 µM in each case.

On to `O=C(Nc1ccc(Cl)cc1)c1cc(S(=O)(=O)Nc2n[nH]c(Nc3ccc4ccccc4c3)n2)c(SSc2cc(Cl)c(C(=O)Nc3ccc(Cl)cc3)cc2S(=O)(=O)Nc2n[nH]c(Nc3ccc4ccccc4c3)n2)cc1Cl`, for which the TGI is 49.8 µM with SW-620 colon; over 64 µM in the test on MCF7 breast; 42.3 µM in the test with MOLT-4 leukemia; 59.2 µM in the test on SN12C renal; 43.7 µM in the test on HCT-15 colon; 76.6 µM with SNB-75 CNS. Further, the TGI was 58.3 µM in the test on SF-295 CNS; 46.9 µM in the test on SK-MEL-28 melanoma; 43.6 µM in the test on CCRF-CEM leukemia; over 96.4 µM in the test on UACC-257 melanoma; 66.5 µM with NCI-H23 lung; over 68 µM in the test on SR leukemia. Also, the TGI in the test on PC-3 prostate was 69.1 µM; with HOP-62 NSCLC it was 80.6 µM; in the test on HS 578T breast, over 100 µM; in the test with NCI-H226 lung, 54.4 µM; in the test with UO-31 renal, 65.3 µM.

Consider `CC(=O)NC1C(OCc2ccccc2)OC(CO)C(O)C1OC(C)C(=O)NC(C(=O)NC(CCC(=O)NCCCC(=O)Nc1ccc2c(c1)CN1C(=O)c3ccccc3C1=N2)C(N)=O)C(C)C` (stereo unspecified), for which the TGI with SW-620 colon, in the test with MCF7 breast, in the test on MOLT-4 leukemia, with SN12C renal, with HCT-15 colon and in the test with SNB-75 CNS was over 100 µM throughout. Besides, the TGI with SF-295 CNS, with SK-MEL-28 melanoma, in the test on CCRF-CEM leukemia, in the test on UACC-257 melanoma, with NCI-H23 lung and with SR leukemia was over 100 µM throughout. Besides, the TGI with PC-3 prostate, in the test on HOP-62 NSCLC, in the test with HS 578T breast, in the test on SK-MEL-2 melanoma and in the test on UO-31 renal was over 100 µM throughout.

Consider `COc1ccc(N2C(=O)C3c4[nH]c5ccc(C)cc5c4C4CCC(C(C)(C)C)CC4C3C2=O)cc1` (stereo unspecified), for which the TGI in the test with SW-620 colon was 69.8 µM; with MCF7 breast it was over 100 µM; in the test with MOLT-4 leukemia, 34.9 µM; in the test on SN12C renal, over 100 µM; in the test on HCT-15 colon it was over 100 µM; with SNB-75 CNS, 7.7 µM. For the same compound, the TGI is 23.3 µM in the test with SF-295 CNS; 33.3 µM in the test with SK-MEL-28 melanoma; 16.7 µM in the test on CCRF-CEM leukemia; 77.8 µM with UACC-257 melanoma; 86.5 µM with NCI-H23 lung; 32.4 µM in the test with SR leukemia. Further, the TGI in the test with PC-3 prostate is over 100 µM; with HOP-62 NSCLC, 33.4 µM; in the test on HS 578T breast it was 9.89 µM; in the test with NCI-H226 lung, 48.9 µM; with UO-31 renal, 40.3 µM.

For the origin of these results see PubChem BioAssay (NCI).
